In patent US9167822B2, “Antifungal compositions” (DSM IP ASSETS B.V., priority 2012, dated 2015):
Where “and” joins values, the source holds several entries; their conditions need not be identical. Identical values can stand only once.

Key:
Penicillium italicum [1] = assay: In vitro antifungal activity, 96-well microtiter plates; type: cell-based; conditions: 25° C., day 10, 1.25 ppm natamycin, 25 ppm bixafen or both
Description: Subsequently, 100 μl of a Botrytis cinerea suspension prepared in PCB medium was used to inoculated each well with 2.5×10^3 spores/ml.
After incubation of the microtiter plates at 25° C., the in vitro antifungal activity (%) of the individual active ingredients was assessed by calculating the reduction in mould growth observed in the presence of the active ingredient in comparison to the mould growth observed in the absence of the active ingredient. The expected antifungal activity (E in %) of the active ingredient combination was calculated according to the Colby equation (Colby, 1967): E=X+Y−[(X·Y)/100] wherein X and Y are the observed antifungal activities (in %) of the individual active ingredients X and Y, respectively. If the observed antifungal activity (O in %) of the combination exceeds the expected antifungal activity (E in %) of the combination and the resulting synergy factor O/E is thus >1.0, the combined application of the active ingredients leads to a synergistic antifungal effect.
Furthermore, Penicillium italicum was used for inoculation.

Botrytis cinerea [2] = assay: Treatment of strawberries: wounded, inoculated with Botrytis cinerea, then dipped in antifungal composition; type: in vivo
Description: (§1) Ten fresh, organic strawberries were used per treatment. Each strawberry was wounded with a 0.5 mm long cut and each wound was inoculated with 10 μl of a Botrytis cinerea suspension containing 1×10^5 of spores/ml. […] The pH of the compositions was 4. A composition without natamycin or bixafen was used as control. The treated strawberries were incubated in a closed box in the dark at 20° C.
(§2) During incubation, mould growth on the strawberries was assessed in a twofold manner: (i) the number of moulded strawberries per total of 10 strawberries was counted; and (ii) the antifungal activity (in %) of the individual and combined active ingredients was determined by calculating the reduction in mould growth observed on the strawberries treated with the antifungal composition in comparison to the mould growth on the strawberries treated with the control composition. The expected antifungal activity (E in %) of the combined antifungal composition comprising both active ingredients was calculated according to the Colby equation (Colby, 1967): E=X+Y−[(X·Y)/100] wherein X and Y are the observed antifungal activities (in %) of the individual active ingredients X and Y, respectively. If the observed antifungal activity (O in %) of the combination exceeds the expected antifungal activity (E in %) of the combination and the synergy factor O/E is thus >1.0, the combined application of the active ingredients leads to a synergistic antifungal effect.
The treated strawberries were assessed on mould growth. The antifungal activity (in %) of the individual and combined active ingredients was determined according to the method described in Example 3. […]

Penicillium italicum [3] = assay: Treatment of mandarins wounded and inoculated with Penicillium italicum, then dipped; type: in vivo
Description: (§3) Ten fresh, organic mandarins were used per treatment. The peel of each mandarin was wounded once using a cork borer according to the method described by de Lapeyre de Bellaire and Dubois (1987). Subsequently, each wound was inoculated with 10 μl of a Penicillium italicum suspension containing 1×10^5 of spores/ml. […] The pH of the compositions was 4.
The treated mandarins were incubated in a closed box in the dark at 20° C. and assessed on mould growth during incubation.

Botrytis cinerea [4] = assay: Treatment of strawberries: wounded, dipped in antifungal composition, then inoculated with Botrytis cinerea; type: in vivo; conditions: 1000 ppm bixafen or both
Description: as §1, §2
After treatment, each strawberry was inoculated with 10 μl of a Botrytis cinerea suspension containing 1×10^5 of spores/ml. The treated strawberries were assessed on mould growth according to the two methods described in Example 3.

Penicillium italicum [5] = assay: Treatment of apples wounded and inoculated with Penicillium italicum, then dipped; type: in vivo; conditions: for Number of moulded apples/total number of 10 apples: 500 ppm natamycin; for Number of moulded apples per total of 10 apples: 250 ppm natamycin
Description: as §3, with “apples” for “mandarins”, “Each apple” for “The peel of each mandarin”, “1×10^6” for “1×10^5”, “4. A composition without natamycin or bixafen was used as control. The treated apples were incubated in a closed box in the dark at 20° C. […]” for “4.”
During incubation, the treated apples were assessed on mould growth according to the two methods described in Example 3. […]

[6] = day 3, 500 ppm natamycin, 2000 ppm bixafen or both
[7] = day 4, 250 ppm natamycin, 250 ppm bixafen or both
[8] = day 4, 250 ppm natamycin, 500 ppm bixafen or both
[9] = day 4, 500 ppm natamycin, 2000 ppm bixafen or both
[10] = day 6, 250 ppm natamycin, 250 ppm bixafen or both
[11] = day 6, 250 ppm natamycin, 500 ppm bixafen or both
[12] = day 6, 500 ppm natamycin, 2000 ppm bixafen or both
[13] = day 7, 250 ppm natamycin, 250 ppm bixafen or both
[14] = day 7, 250 ppm natamycin, 500 ppm bixafen or both
[15] = day 9, 250 ppm natamycin, 500 ppm bixafen or both
[16] = day 9, 500 ppm natamycin, 2000 ppm bixafen or both
[17] = day 6, 500 ppm natamycin, 1000 ppm bixafen or both
[18] = day 9, 500 ppm natamycin, 1000 ppm bixafen or both
[19] = day 11, 500 ppm natamycin, 2000 ppm bixafen or both
[20] = day 14, 500 ppm natamycin, 1000 ppm bixafen or both
[21] = day 14, 500 ppm natamycin, 2000 ppm bixafen or both

SMILES: Cn1cc(C(=O)Nc2ccc(F)cc2-c2ccc(Cl)c(Cl)c2)c(C(F)F)n1 [Bixafen, bixafen]
- Observed antifungal activity O (%) (Penicillium italicum [1]): 50%
- Number of moulded strawberries/total number of 10 strawberries (Botrytis cinerea [2]; Day 3, 20° C., 250 ppm natamycin, 250 ppm bixafen or both): 9 and 9/10
- Number of moulded strawberries/total number of 10 strawberries (Botrytis cinerea [2]; Day 3, 20° C., 500 ppm natamycin, 2000 ppm bixafen or both): 8 and 8/10
- Number of moulded strawberries/total number of 10 strawberries (Botrytis cinerea [2]; Day 4, 20° C., 250 ppm natamycin, 250 ppm bixafen or both): 9 and 9/10
- Number of moulded strawberries/total number of 10 strawberries (Botrytis cinerea [2]; Day 4, 20° C., 500 ppm natamycin, 2000 ppm bixafen or both): 9 and 9/10
- Number of moulded strawberries/total number of 10 strawberries (Botrytis cinerea [2]; Day 5, 20° C., 250 ppm natamycin, 250 ppm bixafen or both): 10 and 10/10
- Number of moulded strawberries/total number of 10 strawberries (Botrytis cinerea [2]; Day 5-6, 20° C., 500 ppm natamycin, 2000 ppm bixafen or both): 10 and 10/10
- Observed antifungal activity O (%) (Botrytis cinerea [2]; [6]): 62%
- Observed antifungal activity O (%) (Botrytis cinerea [2]; [7]): 47%
- Observed antifungal activity O (%) (Botrytis cinerea [2]; [8]): 65%
- Observed antifungal activity O (%) (Botrytis cinerea [2]; [9]): 55%
- Observed antifungal activity O (%) (Botrytis cinerea [2]; day 5, 250 ppm natamycin, 250 ppm bixafen or both): 33%
- Observed antifungal activity O (%) (Botrytis cinerea [2]; day 5, 500 ppm natamycin, 2000 ppm bixafen or both): 34%
- Observed antifungal activity O (%) (Botrytis cinerea [2]; [10]): 23%
- Observed antifungal activity O (%) (Botrytis cinerea [2]; [11]): 33%
- Observed antifungal activity O (%) (Botrytis cinerea [2]; [12]): 27%
- Observed antifungal activity O (%) (Botrytis cinerea [2]; [13]): 10%
- Observed antifungal activity O (%) (Botrytis cinerea [2]; [14]): 12%
- Observed antifungal activity O (%) (Botrytis cinerea [2]; day 7, 500 ppm natamycin, 2000 ppm bixafen or both): 12%
- Observed antifungal activity O (%) (Botrytis cinerea [2]; [15]): 5%
- Observed antifungal activity O (%) (Botrytis cinerea [2]; [16]): 3%
- Observed antifungal activity O (%) (Botrytis cinerea [2]; day 10, 250 ppm natamycin, 500 ppm bixafen or both): 0%
- Observed antifungal activity O (%) (Penicillium italicum [3]; day 3, 250 ppm natamycin, 250 ppm bixafen or both): 65%
- Observed antifungal activity O (%) (Penicillium italicum [3]; [7]): 27%
- Observed antifungal activity O (%) (Penicillium italicum [3]; [8]): 40%
- Observed antifungal activity O (%) (Penicillium italicum [3]; day 4, 500 ppm natamycin, 1000 ppm bixafen or both): 37%
- Observed antifungal activity O (%) (Penicillium italicum [3]; [9]): 47%
- Observed antifungal activity O (%) (Penicillium italicum [3]; [10]): 28%
- Observed antifungal activity O (%) (Penicillium italicum [3]; [11]): 26%
- Observed antifungal activity O (%) (Penicillium italicum [3]; [17]): 22%
- Observed antifungal activity O (%) (Penicillium italicum [3]; [12]): 32%
- Observed antifungal activity O (%) (Penicillium italicum [3]; [13]): 10%
- Observed antifungal activity O (%) (Penicillium italicum [3]; [14]): 10%
- Observed antifungal activity O (%) (Penicillium italicum [3]; day 7, 500 ppm natamycin, 1000 ppm bixafen or both): 6%
- Observed antifungal activity O (%) (Penicillium italicum [3]; day 9, 250 ppm natamycin, 250 ppm bixafen or both): 0%
- Observed antifungal activity O (%) (Penicillium italicum [3]; [15]): 0%
- Observed antifungal activity O (%) (Penicillium italicum [3]; [18]): 2%
- Observed antifungal activity O (%) (Penicillium italicum [3]; [16]): 7%
- Observed antifungal activity O (%) (Penicillium italicum [3]; day 11, 250 ppm natamycin, 500 ppm bixafen or both): 0%
- Observed antifungal activity O (%) (Penicillium italicum [3]; [19]): 9%
- Observed antifungal activity O (%) (Penicillium italicum [3]; day 13, 250 ppm natamycin, 500 ppm bixafen or both): 0%
- Observed antifungal activity O (%) (Penicillium italicum [3]; [20]): 0%
- Observed antifungal activity O (%) (Penicillium italicum [3]; [21]): 3%
- Observed antifungal activity O (%) (Penicillium italicum [3]; day 15, 250 ppm natamycin, 500 ppm bixafen or both): 0%
- Observed antifungal activity O (%) (Penicillium italicum [3]; day 15, 500 ppm natamycin, 1000 ppm bixafen or both): 0%
- Observed antifungal activity O (%) (Penicillium italicum [3]; day 15, 500 ppm natamycin, 2000 ppm bixafen or both): 0%
- Observed antifungal activity O (%) (Botrytis cinerea [4]; day 3, 500 ppm natamycin): 72%
- Number of moulded wounds/total number of 10 wounds (Botrytis cinerea [4]; day 5, 20° C., 250 ppm natamycin): 8 and 8/10
- Observed antifungal activity O (%) (Botrytis cinerea [4]; day 5, 500 ppm natamycin): 55%
- Observed antifungal activity O (%) (Botrytis cinerea [4]; day 6, 500 ppm natamycin): 35%
- Number of moulded apples/total number of 10 apples (Penicillium italicum [5]; Day 3, 20° C., 1000 ppm bixafen or both): 6 and 6/10
- Number of moulded apples/total number of 10 apples (Penicillium italicum [5]; Day 3-4, 20° C., 2000 ppm bixafen or both): 5/10
- Number of moulded apples/total number of 10 apples (Penicillium italicum [5]; Day 4, 20° C., 1000 ppm bixafen or both): 6 and 6/10
- Number of moulded apples per total of 10 apples (Penicillium italicum [5]; Day 6, 20° C., 500 ppm bixafen or both): 10 and 10/10
- Number of moulded apples/total number of 10 apples (Penicillium italicum [5]; Day 6, 20° C., 1000 ppm bixafen or both): 8 and 8/10
- Number of moulded apples/total number of 10 apples (Penicillium italicum [5]; Day 6, 20° C., 2000 ppm bixafen or both): 8 and 8/10
- Number of moulded apples per total of 10 apples (Penicillium italicum [5]; Day 6-9, 20° C., 250 ppm bixafen or both): all and 10/10
- Number of moulded apples per total of 10 apples (Penicillium italicum [5]; Day 7, 20° C., 500 ppm bixafen or both): 10 and 10/10
- Number of moulded apples/total number of 10 apples (Penicillium italicum [5]; Day 7, 20° C., 1000 ppm bixafen or both): 9 and 9/10
- Number of moulded apples/total number of 10 apples (Penicillium italicum [5]; Day 7, 20° C., 2000 ppm bixafen or both): 8 and 8/10
- Number of moulded apples per total of 10 apples (Penicillium italicum [5]; Day 9, 20° C., 500 ppm bixafen or both): 10 and 10/10
- Number of moulded apples/total number of 10 apples (Penicillium italicum [5]; Day 9-14, 20° C., 1000 ppm bixafen or both): all and 10/10
- Number of moulded apples/total number of 10 apples (Penicillium italicum [5]; Day 9-14, 20° C., 2000 ppm bixafen or both): all and 10/10
- Number of moulded apples per total of 10 apples (Penicillium italicum [5]; Day 11-15, 20° C., 250 ppm bixafen or both): all and 10/10
- Observed antifungal activity O (%) (Penicillium italicum [5]; day 3, 500 ppm natamycin, 1000 ppm bixafen or both): 47%
- Observed antifungal activity O (%) (Penicillium italicum [5]; [6]): 60%
- Observed antifungal activity O (%) (Penicillium italicum [5]; day 6, 250 ppm natamycin, 250 ppm bixafen or both (bixafen 500 ppm)): 17%
- Observed antifungal activity O (%) (Penicillium italicum [5]; [11]): 33%
- Observed antifungal activity O (%) (Penicillium italicum [5]; [17]): 44%
- Observed antifungal activity O (%) (Penicillium italicum [5]; [12]): 39%
- Observed antifungal activity O (%) (Penicillium italicum [5]; [14]): 39%
- Observed antifungal activity O (%) (Penicillium italicum [5]; day 9, 250 ppm natamycin, 250 ppm bixafen or both (bixafen 500 ppm)): 13%
- Observed antifungal activity O (%) (Penicillium italicum [5]; [15]): 17%
- Observed antifungal activity O (%) (Penicillium italicum [5]; [18]): 38%
- Observed antifungal activity O (%) (Penicillium italicum [5]; [16]): 29%
- Observed antifungal activity O (%) (Penicillium italicum [5]; day 11, 250 ppm natamycin, 250 ppm bixafen or both (bixafen 500 ppm)): 0%
- Observed antifungal activity O (%) (Penicillium italicum [5]; day 11, 500 ppm natamycin, 1000 ppm bixafen or both): 30%
- Observed antifungal activity O (%) (Penicillium italicum [5]; [19]): 30%
- Observed antifungal activity O (%) (Penicillium italicum [5]; day 14, 250 ppm natamycin, 250 ppm bixafen or both (bixafen 500 ppm)): 6%
- Observed antifungal activity O (%) (Penicillium italicum [5]; [20]): 21%
- Observed antifungal activity O (%) (Penicillium italicum [5]; [21]): 36%
